Series [1] concerns PK1 neuroblastoma cells exposed to TPrP. The series can be described thus: cells. Type of series: cell-based. To be noted: Neuroblastoma cell, 96 h, read-out: TPrP EC50.
A short description of series [2]: Microsomal stability assay. Type of series: in vitro ADME. To be noted: 1 mg/ml human hepatic microsomes, 37° C., half-life by LC-MS/MS; yes = stability ≥15 minutes. As to the method: The metabolic stability of some test compounds was determined in hepatic human and mouse microsomes. The compound was incubated with 1 mg/ml human or mouse hepatic microsomes at 37° C. with continuous shaking. Aliquots were removed at various time points between 5 minutes and 2 hours and acetonitrile was added to quench the reactions and precipitate the proteins. Samples were then centrifuged through 0.45 μm filter plates and half-lives were determined by LC-MS/MS.

The values below come from patent publication US20240150338A1, “COMPOUNDS AND USE THEREOF FOR TREATMENT OF NEURODEGENERATIVE, DEGENERATIVE AND METABOLIC DISORDERS” (University of Florida Research Foundation, Incorporated, priority 2021, published 2024).

Take `Cc1cc(-c2nc(Nc3ccc(S(C)(=O)=O)c(Cl)c3)sc2CO)ccn1` [SR-33528, (2-((3-Chloro-4-(methylsulfonyl)phenyl)amino)-4-(2-methylpyridin-4-yl)thiazol-5-yl)methanol]: in series [1], the EC50 was determined as 80 nM. Also, in series [2], the “Stabilty in human microsomes ≥ 15 minutes” value (“Stabilty” for short) is “yes”.

As for `Cc1cc(-c2nc(Nc3ccc(S(C)(=O)=O)cc3)sc2CCl)ccn1` [SR-34893, 5-(Chloromethyl)-4-(2-methylpyridin-4-yl)-N-(4-(methylsulfonyl)phenyl)thiazol-2-amine], the 50% effective concentration (EC50) in series [1] was determined as 400 nM. In addition, the “Stabilty” value in series [2] is “yes”.

Turning to `Cc1cc(-c2csc(Nc3ccc(S(N)(=O)=O)cc3)n2)cc(C)n1` [SR-33791, 4-((4-(2,6-Dimethylpyridin-4-yl)thiazol-2-yl)amino)benzenesulfonamide], the concentration giving a half-maximal response (EC50) in series [1] came out at 25 nM. For the same compound, the “Stabilty” value in series [2] is listed as “yes”.

With `O=S(=O)(O)c1ccc(Nc2nc(-c3ccncc3)c(CO)s2)cc1` [SR-33878, 4-((5-(Hydroxymethyl)-4-(pyridin-4-yl)thiazol-2-yl)amino)benzenesulfonic acid], the 50% effective concentration (EC50) in series [1] was 300 nM. Further, the “Stabilty” value in series [2] is recorded as “yes”.

On to `CS(=O)(=O)c1ccc(-c2csc(Nc3ccc(S(N)(=O)=O)cc3)n2)cc1` [SR-35729, 4-((4-(4-(Methylsulfonyl)phenyl)thiazol-2-yl)amino)benzenesulfonamide], for which the EC50 in series [1] worked out at 1.6 nM. The “Stabilty” value in series [2] is recorded as “yes”.

Regarding `COc1cc(-c2nc(Nc3ccc(S(N)(=O)=O)cc3)sc2CO)cc(OC)n1` [SR-33797, 4-((4-(2,6-Dimethoxypyridin-4-yl)-5-(hydroxymethyl)thiazol-2-yl)amino)benzenesulfonamide], in series [1], the concentration for a half-maximal effect (EC50) came out at 45 nM. In addition, the “Stabilty” value in series [2] was “yes”.

Consider `COc1cc(-c2nc(Nc3ccc(S(C)(=O)=O)c(Cl)c3)sc2CO)cc(OC)n1` [SR-33800, (2-((3-Chloro-4-(methylsulfonyl)phenyl)amino)-4-(2,6-dimethoxypyridin-4-yl)thiazol-5-yl)methanol], for which the concentration giving a half-maximal response (EC50) in series [1] stood at 55 nM. Moreover, in series [2], the “Stabilty” value was “yes”.

For the compound `Cc1cc(-c2nc(Nc3ccc(S(N)(=O)=O)cc3)sc2CO)cc(C)n1` [SR-33798, 4-((4-(2,6-Dimethylpyridin-4-yl)-5-(hydroxymethyl)thiazol-2-yl)amino)benzenesulfonamide], the concentration for a half-maximal effect (EC50) in series [1] stood at 20 nM. For the same compound, the “Stabilty” value in series [2] was “yes”.

Regarding `CS(=O)(=O)c1ccc(Nc2nc(-c3ccc(S(C)(=O)=O)cc3)cs2)cc1` [SR-35730, N,4-bis(4-(methylsulfonyl)phenyl)thiazol-2-amine], the 50% effective concentration (EC50) in series [1] is 4 nM. The “Stabilty” value in series [2] is “yes”.

For `COc1cc(-c2csc(Nc3ccc(S(C)(=O)=O)c(Cl)c3)n2)ccn1` [SR-34993, N-(3-Chloro-4-(methylsulfonyl)phenyl)-4-(2-methoxypyridin-4-yl)thiazol-2-amine], in series [1], the concentration giving a half-maximal response (EC50) came to 125 nM. Besides, in series [2], the “Stabilty” value is recorded as “yes”.

With `COc1cc(-c2csc(Nc3ccc(S(C)(=O)=O)c(Cl)c3)n2)cc(OC)n1` [SR-33787, N-(3-chloro-4-(methylsulfonyl)phenyl)-4-(2,6-dimethoxypyridin-4-yl)thiazol-2-amine], the EC50 in series [1] was found to be 80 nM. Also, the “Stabilty” value in series [2] is given as “yes”.

For `CNS(=O)(=O)c1ccc(-c2csc(Nc3ccc(S(C)(=O)=O)c(F)c3)n2)cc1` [SR-35735, 4-(2-((3-Fluoro-4-(methylsulfonyl)phenyl)amino)thiazol-4-yl)-N-methylbenzenesulfonamide], the EC50 in series [1] was determined as 6 nM. The “Stabilty” value in series [2] is given as “yes”.

In the case of `COc1cccc(-c2csc(Nc3ccc(S(C)(=O)=O)cc3)n2)c1` [SR-35788, 4-(3-Methoxyphenyl)-N-(4-(methylsulfonyl)phenyl)thiazol-2-amine], in series [1], the 50% effective concentration (EC50) worked out at 170 nM. Moreover, in series [2], the “Stabilty” value is “yes”.

On to `COc1cc(-c2nc(Nc3ccc(S(C)(=O)=O)cc3)sc2CO)cc(OC)n1` [SR-33796, (4-(2,6-Dimethoxypyridin-4-yl)-2-((4-(methylsulfonyl)phenyl)amino)thiazol-5-yl)methanol], for which the EC50 in series [1] came to 450 nM. The “Stabilty” value in series [2] is “yes”.

Turning to `NS(=O)(=O)c1ccc(Nc2nc(-c3ccncc3)c(CO)s2)cc1` [SR-28550, 4-((5-(Hydroxymethyl)-4-(pyridin-4-yl)thiazol-2-yl)amino)benzenesulfonamide], in series [1], the EC50 stood at 70 nM. Moreover, the “Stabilty” value in series [2] is on record as “yes”.

For the compound `O=S(=O)(O)c1ccc(Nc2nc(-c3ccnc(Cl)c3)c(CO)s2)cc1` [SR-33527, 4-((4-(2-Chloropyridin-4-yl)-5-(hydroxymethyl)thiazol-2-yl)amino)benzenesulfonic acid], in series [1], the concentration giving a half-maximal response (EC50) came to 160 nM. The “Stabilty” value in series [2] was “yes”.

Turning to `Cc1ccc(-c2csc(Nc3ccc(S(C)(=O)=O)cc3)n2)cc1` [SR-35731, N-(4-(methylsulfonyl)phenyl)-4-(p-tolyl)thiazol-2-amine], the EC50 in series [1] is greater than 500 nM. The “Stabilty” value in series [2] is recorded as “yes”.

For the compound `O=S(=O)(O)c1ccc(Nc2nc(-c3ccncc3)cs2)cc1` [SR-33785, 4-((4-(Pyridin-4-yl)thiazol-2-yl)amino)benzenesulfonic acid], the EC50 in series [1] came out at 40 nM. Also, the “Stabilty” value in series [2] was “yes”.

On to `CNS(=O)(=O)c1ccc(-c2csc(Nc3ccc(S(C)(=O)=O)c(Cl)c3)n2)cc1` [SR-35736, 4-(2-((3-Chloro-4-(methylsulfonyl)phenyl)amino)thiazol-4-yl)-N-methylbenzenesulfonamide], for which, in series [1], the concentration for a half-maximal effect (EC50) turned out to be 5 nM. Moreover, the “Stabilty” value in series [2] was “yes”.

With `Cc1cc(-c2nc(Nc3ccc(S(N)(=O)=O)cc3)sc2CO)ccn1` [SR-33524, 4-((5-(Hydroxmethyl)-4-(2-methylpyridin-4-yl)thiazol-2-yl)amino)benzenesulfonamide], the EC50 in series [1] is 60 nM. Besides, the “Stabilty” value in series [2] is recorded as “yes”.

For the compound `COc1cc(-c2csc(Nc3ccc(S(C)(=O)=O)cc3)n2)cc(OC)n1` [SR-33789, 4-(2,6-Dimethoxypyridin-4-yl)-N-(4-(methylsulfonyl)phenyl)thiazol-2-amine], the EC50 in series [1] was 300 nM. Moreover, in series [2], the “Stabilty” value is listed as “yes”.

Take `CS(=O)(=O)c1ccc(Nc2nc(-c3ccncc3)c(CO)s2)cc1` [SR-33795, (2-((4-(Methylsulfonyl)phenyl)amino)-4-(pyridin-4-yl)thiazol-5-yl)methanol]: in series [1], the EC50 is 350 nM. Moreover, the “Stabilty” value in series [2] is on record as “yes”.

As to `CNS(=O)(=O)c1ccc(-c2csc(Nc3ccc(CS(C)(=O)=O)cc3)n2)cc1` [SR-35727, N-methyl-4-(2-((4-((methylsulfonyl)methyl)phenyl)amino)thiazol-4-yl)benzenesulfonamide], the EC50 in series [1] is 18 nM. For the same compound, the “Stabilty” value in series [2] is given as “yes”.

In the case of `NS(=O)(=O)c1ccc(Nc2nc(-c3ccc(S(=O)(=O)Nc4ccccc4)cc3)c(CO)s2)cc1` [SR-34773, 4-(5-(Hydroxymethyl)-2-((4-sulfamoylphenyl)amino)thiazol-4-yl)-N-phenylbenzenesulfonamide], in series [1], the EC50 was determined as 300 nM. In addition, the “Stabilty” value in series [2] is “yes”.

Consider `Cc1cc(-c2csc(Nc3ccc(S(C)(=O)=O)c(C(F)(F)F)c3)n2)cc(C)n1` [SR-34984, 4-(2,6-Dimethylpyridin-4-yl)-N-(4-(methylsulfonyl)-3-(trifluoromethyl)phenyl)thiazol-2-amine], for which, in series [1], the half-maximal effective concentration (EC50) was 60 nM. Also, the “Stabilty” value in series [2] is recorded as “yes”.

For `CS(=O)(=O)c1ccc(Nc2nc(-c3ccnc(Cl)c3)c(CO)s2)cc1Cl` [SR-33529, (2-((3-Chloro-4-(methylsulfonyl)phenyl)amino)-4-(2-chloropyridin-4-yl)thiazol-5-yl)methanol], in series [1], the EC50 is 80 nM. Also, the “Stabilty” value in series [2] was “yes”.

`Cc1cc(-c2nc(Nc3ccc(S(C)(=O)=O)cc3)sc2CO)ccn1` [SR-33799, (4-(2-Methylpyridin-4-yl)-2-((4-(methylsulfonyl)phenyl)amino)thiazol-5-yl)methanol]: the concentration for a half-maximal effect (EC50) in series [1] came to 60 nM. The “Stabilty” value in series [2] is “yes”.

For the compound `CC(C)c1ccc(-c2csc(Nc3ccc(S(C)(=O)=O)cc3)n2)cc1` [SR-35789, 4-(4-Isopropylphenyl)-N-(4-(methylsulfonyl)phenyl)thiazol-2-amine], in series [1], the 50% effective concentration (EC50) was greater than 500 nM. Also, the “Stabilty” value in series [2] is on record as “yes”.

With `Cc1cc(-c2csc(Nc3ccc(S(C)(=O)=O)cc3)n2)ccn1` [SR-33793, 4-(2-Methylpyridin-4-yl)-N-(4-(methylsulfonyl)phenyl)thiazol-2-amine], in series [1], the EC50 turned out to be 20 nM. Further, in series [2], the “Stabilty” value is on record as “yes”.

Take `Cc1cc(-c2nc(Nc3ccc(S(C)(=O)=O)cc3)sc2CO)cc(C)n1` [SR-33794, (4-(2,6-Dimethylpyridin-4-yl)-2-((4-(methylsulfonyl)phenyl)amino)thiazol-5-yl)methanol]: in series [1], the EC50 came to 70 nM. For the same compound, in series [2], the “Stabilty” value is “yes”.

As to `NS(=O)(=O)c1ccc(Nc2nc(-c3ccncc3)cs2)cc1` [SR-186, 4-((4-(pyridin-4-yl)thiazol-2-yl)amino)benzenesulfonamide], the 50% effective concentration (EC50) in series [1] amounted to 70 nM.

On to `CN(C)S(=O)(=O)c1ccc(-c2csc(Nc3ccc(S(N)(=O)=O)cc3)n2)cc1` [SR-34769, N,N-dimethyl-4-(2-((4-sulfamoylphenyl)amino)thiazol-4-yl)benzenesulfonamide], for which the EC50 in series [1] came out at 30 nM.

Consider `Cc1cc(-c2csc(Nc3ccc(S(C)(=O)=O)c(C(F)(F)F)c3)n2)ccn1` [SR-34983, 4-(2-Methylpyridin-4-yl)-N-(4-(methylsulfonyl)-3-(trifluoromethyl)phenyl)thiazol-2-amine], for which the EC50 in series [1] amounted to 40 nM.

One may read the EC50 as the concentration giving half of the maximal effect.
